Among the data in US20260224571A1, “AZACYCLOALKANE COMPOUND AND PHARMACEUTICAL COMPOSITION, AND USE THEREOF” (Prime Gene Therapeutics Co., Ltd., priority 2023, published 2026) are IC50 values, retold here.

The target of one assay is ROCK1 (Homo sapiens, UniProt Q13464). The assay can be described thus: ROCK1 kinase enzymatic activity (HTRF, STK2 substrate). Format: biochemical. As to conditions: ROCK1 kinase reacted at room temperature for 20 minutes. From the text: (§1) The kinase activity data was expressed by comparing the kinase activity of the test compound and that of the blank group (containing only DMSO), and the IC50 value was obtained by curve fitting using Prism software (GraphPad7.0).
ROCK1, sequence (Q13464 whole entry): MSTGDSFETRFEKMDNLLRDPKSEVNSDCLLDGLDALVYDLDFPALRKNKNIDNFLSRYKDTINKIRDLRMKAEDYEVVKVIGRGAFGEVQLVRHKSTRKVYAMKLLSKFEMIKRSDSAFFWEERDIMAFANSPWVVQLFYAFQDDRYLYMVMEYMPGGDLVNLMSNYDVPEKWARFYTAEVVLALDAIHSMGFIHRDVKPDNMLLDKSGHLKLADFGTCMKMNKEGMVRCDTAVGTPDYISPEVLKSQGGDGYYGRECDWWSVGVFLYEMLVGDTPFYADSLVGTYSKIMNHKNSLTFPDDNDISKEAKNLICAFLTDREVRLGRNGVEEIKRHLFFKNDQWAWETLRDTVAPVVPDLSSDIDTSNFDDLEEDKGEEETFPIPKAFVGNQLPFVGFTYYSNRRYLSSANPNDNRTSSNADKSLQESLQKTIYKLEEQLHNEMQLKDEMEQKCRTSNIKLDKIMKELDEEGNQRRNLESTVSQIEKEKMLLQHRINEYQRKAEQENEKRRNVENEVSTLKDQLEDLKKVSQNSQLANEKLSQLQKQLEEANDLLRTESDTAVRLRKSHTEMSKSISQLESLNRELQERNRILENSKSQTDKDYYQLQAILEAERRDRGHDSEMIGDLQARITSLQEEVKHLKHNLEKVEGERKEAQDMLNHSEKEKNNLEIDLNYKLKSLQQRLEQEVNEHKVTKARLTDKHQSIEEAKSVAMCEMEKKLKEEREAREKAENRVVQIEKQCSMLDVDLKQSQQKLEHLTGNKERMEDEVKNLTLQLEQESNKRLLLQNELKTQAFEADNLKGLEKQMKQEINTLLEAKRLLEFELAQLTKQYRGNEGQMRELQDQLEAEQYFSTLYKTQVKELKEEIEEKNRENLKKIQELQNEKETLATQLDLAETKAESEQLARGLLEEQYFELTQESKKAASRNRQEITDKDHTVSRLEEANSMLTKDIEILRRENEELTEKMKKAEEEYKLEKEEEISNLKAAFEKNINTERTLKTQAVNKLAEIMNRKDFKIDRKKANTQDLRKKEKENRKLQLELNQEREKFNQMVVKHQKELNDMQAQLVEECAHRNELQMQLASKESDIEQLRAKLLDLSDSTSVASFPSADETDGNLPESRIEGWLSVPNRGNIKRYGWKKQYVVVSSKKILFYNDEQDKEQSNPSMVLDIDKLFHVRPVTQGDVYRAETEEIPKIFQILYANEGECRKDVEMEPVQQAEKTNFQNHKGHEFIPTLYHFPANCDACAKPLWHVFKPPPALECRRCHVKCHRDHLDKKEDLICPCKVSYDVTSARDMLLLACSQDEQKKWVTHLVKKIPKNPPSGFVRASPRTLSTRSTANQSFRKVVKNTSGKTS
Background: TR-FRET usually uses a lanthanide donor and a delayed reading to cut background.

In another assay the target is ROCK2 (Homo sapiens, UniProt O75116). Nature of the assay: ROCK2 kinase enzymatic activity (HTRF, STK2 substrate). In kind it is biochemical. To be noted: ROCK2 kinase reacted at room temperature for 30 minutes.
ROCK2, sequence (O75116 whole entry): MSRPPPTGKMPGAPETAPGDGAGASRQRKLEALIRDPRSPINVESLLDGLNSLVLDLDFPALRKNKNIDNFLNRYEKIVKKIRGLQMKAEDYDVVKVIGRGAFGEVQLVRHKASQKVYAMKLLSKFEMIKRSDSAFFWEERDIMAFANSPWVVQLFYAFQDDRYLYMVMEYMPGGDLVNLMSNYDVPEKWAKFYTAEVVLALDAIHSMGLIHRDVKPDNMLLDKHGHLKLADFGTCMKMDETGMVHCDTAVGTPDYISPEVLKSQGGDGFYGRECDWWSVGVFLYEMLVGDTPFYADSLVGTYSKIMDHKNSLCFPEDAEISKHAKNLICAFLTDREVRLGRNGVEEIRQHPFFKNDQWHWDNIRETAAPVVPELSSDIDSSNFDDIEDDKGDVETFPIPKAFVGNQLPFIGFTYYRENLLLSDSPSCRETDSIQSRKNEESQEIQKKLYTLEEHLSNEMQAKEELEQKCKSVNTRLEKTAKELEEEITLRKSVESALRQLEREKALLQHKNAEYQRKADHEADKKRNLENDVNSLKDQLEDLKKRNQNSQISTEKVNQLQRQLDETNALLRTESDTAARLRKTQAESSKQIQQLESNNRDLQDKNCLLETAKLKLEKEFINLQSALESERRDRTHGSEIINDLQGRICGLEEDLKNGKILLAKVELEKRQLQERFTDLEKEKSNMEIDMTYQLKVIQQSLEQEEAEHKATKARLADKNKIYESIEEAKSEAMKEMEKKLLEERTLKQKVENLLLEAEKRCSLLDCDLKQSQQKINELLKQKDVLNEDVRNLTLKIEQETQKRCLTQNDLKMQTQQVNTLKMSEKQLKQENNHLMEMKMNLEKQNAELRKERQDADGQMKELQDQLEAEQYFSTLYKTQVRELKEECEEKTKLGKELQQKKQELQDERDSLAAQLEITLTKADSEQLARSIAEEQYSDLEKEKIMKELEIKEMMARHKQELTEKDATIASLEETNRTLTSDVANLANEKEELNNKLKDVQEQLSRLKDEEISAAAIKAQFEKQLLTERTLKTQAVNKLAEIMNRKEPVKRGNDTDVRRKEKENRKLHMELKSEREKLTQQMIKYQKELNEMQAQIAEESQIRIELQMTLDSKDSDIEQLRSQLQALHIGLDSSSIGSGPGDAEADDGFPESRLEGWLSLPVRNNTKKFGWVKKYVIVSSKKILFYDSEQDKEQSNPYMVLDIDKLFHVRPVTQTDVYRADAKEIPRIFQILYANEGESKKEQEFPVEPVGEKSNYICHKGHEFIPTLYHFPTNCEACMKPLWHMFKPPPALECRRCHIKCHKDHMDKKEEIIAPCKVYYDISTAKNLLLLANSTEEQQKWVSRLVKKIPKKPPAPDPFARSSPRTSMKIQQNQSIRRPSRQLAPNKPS
Text: as §1

Molecules are shown by their SMILES.

For `N#CCC1(n2cc(-c3ncnc4[nH]ccc34)c(N)n2)CN(C(=O)C2CC(F)(F)C2)C1` [Example 32, 2-(3-(3-amino-4-(7H-pyrrolo[2,3-d]pyrimidin-4-yl)-1H-pyrazol-1-yl)-1-(3,3-difluorocyclobutane-1-carbonyl)azetidine-3-yl)acetonitrile], the IC50 against ROCK1 was less than 5 nM; on ROCK2 it was less than 10 nM.

On to `C[C@H](O)C(=O)N1CC(CC#N)(n2cc(-c3ncnc4[nH]ccc34)c(N)n2)C1` [Example 33, (S)-2-(3-(3-amino-4-(7H-pyrrolo[2,3-d]pyrimidin-4-yl)-1H-pyrazol-1-yl)-1-(2-hydroxypropionyl)azetidine-3-yl)acetonitrile], for which the IC50 at ROCK1 and against ROCK2 was less than 10 nM throughout.

As to `N#CCC1(n2cc(-c3ncnc4[nH]ccc34)c(N)n2)CN(C(=O)[C@@H]2C[C@H]2C#N)C1` [Example 35, (1R, 2R)-2-(3-(3-amino-4-(7H-pyrrolo[2,3-d]pyrimidin-4-yl)-1H-pyrazol-1-yl)-3-(cyanomethyl)azetidine-1-carbonyl)cyclopropane-1-nitrile], the IC50 against ROCK1 and against ROCK2 was less than 10 nM throughout.

In the case of `CS(=N)(=O)N1CC(CC#N)(n2cc(-c3ncnc4[nH]ccc34)c(N)n2)C1` (stereo not drawn) [Example 36, 2-(3-(3-amino-4-(7H-pyrrolo[2,3-d]pyrimidin-4-yl)-1H-pyrazol-1-yl)-1-(S-methysulfonylimino)azetidine-3-yl)acetonitrile], the IC50 at ROCK1 and against ROCK2 was less than 5 nM throughout.

For the compound `CC(C)S(=N)(=O)N1CC(CC#N)(n2cc(-c3ncnc4[nH]ccc34)c(N)n2)C1` (stereo not drawn) [Example 39, 2-(3-(3-amino-4-(7H-pyrrolo[2,3-d]pyrimidin-4-yl)-1H-pyrazol-1-yl)-1-(prop-2-yl-sulfonylimino)azetidine-3-yl)acetonitrile], the IC50 at ROCK1 and on ROCK2 was less than 50 nM each time.

As for `N#CCC1(n2cc(-c3ncnc4[nH]ccc34)c(N)n2)CN(S(=O)(=O)NS(N)(=O)=O)C1` [Example 42, 3-(3-amino-4-(7H-pyrrolo[2,3-d]pyrimidin-4-yl)-1H-pyrazol-1-yl)-3-(cyanomethyl)-N-sulfamoylazetidine-1-sulfonamide], the IC50 was less than 100 nM at ROCK1 and less than 50 nM at ROCK2.

Consider `N#CCC1(n2cc(-c3ncnc4[nH]ccc34)c(N)n2)CN(S(=O)(=O)N(CC(F)(F)F)CC(F)(F)F)C1` [Example 43, 3-(3-amino-4-(7H-pyrrolo[2,3-d]pyrimidin-4-yl)-1H-pyrazol-1-yl)-3-(cyanomethyl)-N,N-bis(2,2,2-trifluoroethyl)azetidine-1-sulfonamide], for which the IC50 on ROCK1 and at ROCK2 was less than 10 nM in each case.

As to `N#CCC1(n2cc(-c3ncnc4[nH]ccc34)c(N)n2)CN(S(=O)(=O)NCCO)C1` [Example 44, 3-(3-amino-4-(7H-pyrrolo[2,3-d]pyrimidin-4-yl)-1H-pyrazol-1-yl)-3-(cyanomethyl)-N-(2-hydroxyethyl)azetidine-1-sulfonamide], the IC50 against ROCK1 and against ROCK2 was less than 50 nM each time.

In the case of `N#CCC1(n2cc(-c3ncnc4[nH]ccc34)c(N)n2)CN(S(=O)(=O)NCCCl)C1` [Example 46, 3-(3-amino-4-(7H-pyrrolo[2,3-d]pyrimidin-4-yl)-1H-pyrazol-1-yl)-N-(2-chloroethyl)-3-(cyanomethyl)azetidine-1-sulfonamide], the IC50 against ROCK1 was less than 10 nM; on ROCK2, less than 5 nM.

As to `N#CCC1(n2cc(-c3ncnc4[nH]ccc34)c(N)n2)CN(S(=O)(=O)N2CC2)C1` [Example 47, 2-(3-(3-amino-4-(7H-pyrrolo[2,3-d]pyrimidin-4-yl)-1H-pyrazol-1-yl)-1-(aziridin-1-ylsulfonyl)azetidine-3-yl)acetonitrile], the half-inhibitory concentration (IC50) on ROCK1 and against ROCK2 was less than 5 nM each time.

As for `COCCNS(=O)(=O)N1CC(CC#N)(n2cc(-c3ncnc4[nH]ccc34)c(N)n2)C1` [Example 48, 3-(3-amino-4-(7H-pyrrolo[2,3-d]pyrimidin-4-yl)-1H-pyrazol-1-yl)-3-(cyanomethyl)-N-(2-methoxyethyl)azetidine-1-sulfonamide], the figures for the IC50 on ROCK1 and on ROCK2 were less than 50 nM and less than 10 nM, respectively.

In the case of `CNS(=O)(=O)N1CC(CC#N)(n2cc(-c3ncnc4[nH]ccc34)c(N)n2)C1` [Example 49, 3-(3-amino-4-(7H-pyrrolo[2,3-d]pyrimidin-4-yl)-1H-pyrazol-1-yl)-3-(cyanomethyl)-N-methylazetidine-1-sulfonamide], the IC50 against ROCK1 and on ROCK2 was less than 10 nM in each case.

Regarding `CN(C)S(=O)(=O)N1CC(CC#N)(n2cc(-c3ncnc4[nH]ccc34)c(N)n2)C1` [Example 51, 3-(3-amino-4-(7H-pyrrolo[2,3-d]pyrimidin-4-yl)-1H-pyrazol-1-yl)-3-(cyanomethyl)-N,N-dimethylazetidine-1-sulfonamide], the IC50 at ROCK1 and against ROCK2 was less than 10 nM throughout.

Regarding `CN(C)CCNS(=O)(=O)N1CC(CC#N)(n2cc(-c3ncnc4[nH]ccc34)c(N)n2)C1` [Example 52, 3-(3-amino-4-(7H-pyrrolo[2,3-d]pyrimidin-4-yl)-1H-pyrazol-1-yl)-3-(cyanomethyl)-N-(2-(dimethylamino)ethyl)azetidine-1-sulfonamide], the IC50 at ROCK1 and at ROCK2 was less than 10 nM in each case.

On to `COC(=O)CNS(=O)(=O)N1CC(CC#N)(n2cc(-c3ncnc4[nH]ccc34)c(N)n2)C1` [Example 53, methyl (3-(3-amino-4-(7H-pyrrolo[2,3-d]pyrimidin-4-yl)-1H-pyrazol-1-yl)-3-(cyanomethyl)azetidine-1-ylsulfonyl)glycinate], for which the half-maximal inhibitory concentration (IC50) on ROCK1 and against ROCK2 was less than 10 nM in each case.

In the case of `N#CCC1(n2cc(-c3ncnc4[nH]ccc34)c(N)n2)CN(S(=O)(=O)NCC(=O)O)C1` [Example 54], the IC50 against ROCK1 and against ROCK2 was less than 50 nM in each case.

Regarding `CCS(=O)(=O)N1CC(CC#N)(n2cc(-c3ncnc4[nH]ccc34)c(O)n2)C1` [Example 56, 2-(1-(ethylsulfonyl)-3-(3-hydroxy-4-(7H-pyrrolo[2,3-d]pyrimidin-4-yl)-1H-pyrazol-1-yl)azetidine-3-yl)acetonitrile], the IC50 at ROCK1 is less than 50 nM; against ROCK2 it was greater than 100 nM.

In the case of `CC(C)S(=O)(=O)N1CC(CC#N)(n2cc(-c3ncnc4[nH]ccc34)c(O)n2)C1` [Example 57, 2-(3-(3-hydroxy-4-(7H-pyrrolo[2,3-d]pyrimidin-4-yl)-1H-pyrazol-1-yl)-1-(isopropylsulfonyl)azetidine-3-yl)acetonitrile], the 50% inhibitory concentration (IC50) against ROCK1 was less than 50 nM; at ROCK2, greater than 100 nM.

Regarding `N#CCC1(n2cc(-c3ncnc4[nH]ccc34)c(O)n2)CN(S(=O)(=O)C2CC2)C1` [Example 58, 2-(1-(cyclopropylsulfonyl)-3-(3-hydroxy-4-(7H-pyrrolo[2,3-d]pyrimidin-4-yl)-1H-pyrazol-1-yl)azetidine-3-yl)acetonitrile], the values for the IC50 against ROCK1 and at ROCK2 were less than 50 nM and greater than 100 nM, respectively.

As for `COc1nn(C2(CC#N)CN(S(=O)(=O)C(C)C)C2)cc1-c1ncnc2[nH]ccc12` [Example 59, 2-(1-(isopropylsulfonyl)-3-(3-methoxy-4-(7H-pyrrolo[2,3-d]pyrimidin-4-yl)-1H-pyrazol-1-yl)azetidine-3-yl)acetonitrile], the IC50 at ROCK1 is less than 50 nM; at ROCK2, greater than 100 nM.

Regarding `N#CCC1(n2cc(-c3ncnc4[nH]ccc34)c(C(N)=O)n2)CN(S(=O)(=O)CC(F)(F)F)C1` [Example 60, 1-(3-(cyanomethyl)-1-((2,2,2-trifluoroethyl)sulfonyl)azetidine-3-yl)-4-(7H-pyrrolo[2,3-d]pyrimidin-4-yl)-1H-pyrazole-3-formamide], the 50% inhibitory concentration (IC50) on ROCK1 and against ROCK2 was greater than 100 nM each time.

In the case of `CCS(=O)(=O)N1CC(CC#N)(n2cc(-c3ncnc4[nH]ccc34)c(C(=O)NC)n2)C1` [Example 63, 1-(3-(cyanomethyl)-1-(ethylsulfonyl)azetidine-3-yl)-N-methyl-4-(7H-pyrrolo[2,3-d]pyrimidin-4-yl)-1H-pyrazol-3-formamide], the IC50 against ROCK1 and against ROCK2 was greater than 100 nM in each case.

As for `CNC(=O)c1nn(C2(CC#N)CN(S(=O)(=O)C(C)C)C2)cc1-c1ncnc2[nH]ccc12` [Example 64, 1-(3-(cyanomethyl)-1-(isopropylsulfonyl)azetidine-3-yl)-N-methyl-4-(7H-pyrrolo[2,3-d]pyrimidin-4-yl)-1H-pyrazol-3-formamide], the IC50 at ROCK1 and against ROCK2 was greater than 100 nM each time.

With `CNC(=O)c1nn(C2(CC#N)CN(S(=O)(=O)C3CC3)C2)cc1-c1ncnc2[nH]ccc12` [Example 65, 1-(3-(cyanomethyl)-1-(cyclopropylsulfonyl)azetidine-3-yl)-N-methyl-4-(7H-pyrrolo[2,3-d]pyrimidin-4-yl)-1H-pyrazol-3-formamide], the 50% inhibitory concentration (IC50) at ROCK1 and at ROCK2 was greater than 100 nM each time.

Consider `CCS(=O)(=O)N1CC(CC#N)(n2cc(-c3ncnc4[nH]ccc34)c(C(N)=O)n2)C1` [Example 66, 1-(3-(cyanomethyl)-1-(ethylsulfonyl)azetidine-3-yl)-4-(7H-pyrrolo[2,3-d]pyrimidin-4-yl)-1H-pyrazol-3-formamide], for which the IC50 against ROCK1 and against ROCK2 was greater than 100 nM throughout.

Turning to `N#CCC1(n2cc(-c3ncnc4[nH]ccc34)c(C(N)=O)n2)CN(S(=O)(=O)C2CC2)C1` [Example 67, 1-(3-(cyanomethyl)-1-(cyclopropylsulfonyl)azetidine-3-yl)-4-(7H-pyrrolo[2,3-d]pyrimidin-4-yl)-1H-pyrazol-3-formamide], the IC50 against ROCK1 and on ROCK2 was greater than 100 nM in each case.

As to `CC(C)S(=O)(=O)N1CC(CC#N)(n2cc(-c3ncnc4[nH]ccc34)c(C(N)=O)n2)C1` [Example 68, 1-(3-(cyanomethyl)-1-(isopropylsulfonyl)azetidine-3-yl)-4-(7H-pyrrolo[2,3-d]pyrimidin-4-yl)-1H-pyrazol-3-formamide], the IC50 at ROCK1 and on ROCK2 was greater than 100 nM throughout.

As usually defined, the IC50 is the concentration at which inhibition is half-maximal. Read a low IC50 as greater potency in that assay.
